Mass density and refractive index data for six compounds are collected here from the NIST ThermoML archive (doi:10.1016/j.fluid.2013.07.028).

For data set [1] the following is noted: 298.15 K; 101.33 kPa; Liquid; Vibrating tube method.
Data set [2] is described as follows: refractive index (Na D-line) (dimensionless). The following applies: 298.15 K; 101.33 kPa; Liquid; Standard Abbe refractometry.

Structures are written as SMILES. ± gives the expanded uncertainty stated by the source.

Take `CC(=O)[O-].CCn1cc[n+](C)c1` [1-ethyl-3-methylimidazolium acetate]: the mass density in data set [1] is 1099.02 ± 8.4 kg/m3. Moreover, the refractive index in data set [2] is given as 1.50069 ± 0.001.

On to `CCOP(=O)([O-])OCC.CCn1cc[n+](C)c1` [1-ethyl-3-methylimidazolium diethyl phosphate], for which, in data set [1], the mass density is given as 1148.4 ± 9.2 kg/m3. Also, the refractive index in data set [2] turned out to be 1.47304 ± 0.001.

As to `CCCCCC` [hexane], the mass density in data set [1] was found to be 655.09 ± 0.33 kg/m3. Besides, the refractive index in data set [2] was 1.37236 ± 0.00037.

For `c1ccncc1` [pyridine], in data set [1], the mass density is 978.04 ± 0.12 kg/m3. For the same compound, the refractive index in data set [2] was 1.50636 ± 0.00033.

For `c1ccsc1` [thiophene], the mass density in data set [1] worked out at 1058.61 ± 0.15 kg/m3. Further, the refractive index in data set [2] amounted to 1.52523 ± 0.00033.

As to `Cc1ccccc1` [toluene], the mass density in data set [1] stood at 862.18 ± 0.16 kg/m3. In data set [2], the refractive index turned out to be 1.49367 ± 0.00033.
